Measurements as given in PMC5415599, “New Potent Membrane-Targeting Antibacterial Peptides from Viral Capsid Proteins” (Frontiers in Microbiology, 2017).
Read-outs that look alike come from different tables or passages of the source. Where no end group is shown, it is not given here.

Experiments:
S. aureus [1] = assay type: cell-based, Staphylococcus aureus; conditions: for bactericidal or bacteriostatic: bactericidal when MBC is equal or lower than four-fold MIC; for MBC: lowest concentration causing ≥99.9% cell death of the inoculum, TSA plates, 37°C, 24 h, triplicate
Experimental: (§1) After the MIC assay, aliquots were removed from the wells with no visible bacterial growth, serially diluted in MHB, plated on nutrient-rich trypcase soy agar (TSA) plates from bioMérieux (Marcy l’Etoile, France), and incubated at 37°C for 24 h. […] The assay was performed in triplicate.

S. aureus [2] = test: Time-kill assay; assay type: cell-based, Staphylococcus aureus; conditions: peptide at its MBC, after 30 min, MHB, 37°C, relative to control without peptide, three independent experiments
Experimental: (§2) For viral protein-derived peptides displaying bactericidal activity, bacterial killing kinetics was determined by a conventional method based on colony counts obtained after different times of exposure of the bacterial cells to the peptides ([Barry et al., 1999]). The assay was performed using S. aureus and P. aeruginosa as representative strains of Gram-positive and Gram-negative bacteria, respectively. Bacterial suspensions prepared in MHB at 5 × 10^5 CFU/mL were treated with each peptide at final concentrations corresponding to their MBC, and incubated at 37°C and 200 rpm. A control of bacterial suspensions without peptide was performed under the same conditions. Aliquots of untreated and peptide-treated bacterial suspensions were withdrawn at 0, 15, 30, 60, 120, and 180 min, serially diluted in MHB, and plated on TSA plates. Bacterial colonies were counted after 24 h of incubation at 37°C. Viable bacteria (in CFU/mL) are reported as percentage of the control. The assay was performed in triplicate.

P. aeruginosa [3] = assay type: cell-based; conditions: for bactericidal or bacteriostatic: bactericidal when MBC is equal or lower than four-fold MIC; for MBC: lowest concentration causing ≥99.9% cell death of the inoculum, TSA plates, 37°C, 24 h, triplicate
Experimental: as §1

[4] = system: Staphylococcus aureus (S. aureus) ATCC 25923; conditions: previous screen, ref Freire et al., 2015a; cited from earlier work
P. aeruginosa cells = test: Atomic force microscopy (AFM) imaging; assay type: cell-based, Pseudomonas aeruginosa; conditions: 1 h, 37°C
Experimental: Atomic force microscopy (AFM) imaging was used to study the effect of the bactericidal viral protein-derived peptides on P. aeruginosa cells. Bacterial suspensions at 1 × 10^8 CFU/mL in MHB were centrifuged for 10 min at 4000 × g, and the pellet resuspended in HEPES buffer to a final concentration of 1 × 10^7 CFU/mL. The bacterial suspensions were treated with each peptide at concentrations corresponding to their MBC, as well as the concentrations above and below their MBC, and incubated for 1 h at 37°C and 200 rpm. As control, untreated bacterial suspension was also incubated using the same conditions. A 200 μL droplet of each test sample was applied on a poly-L-lysine-coated glass slide and allowed to deposit for 20 min at room temperature. Each sample was then rinsed 10 times with sterile Milli-Q water and allowed to dry for 30 min at room temperature. AFM images were acquired using a JPK NanoWizard II (Berlin, Germany) mounted on a Zeiss Axiovert 200 inverted microscope (Göttingen, Germany). Measurements were carried out in air and in intermittent contact mode using uncoated silicon ACL cantilevers from APPNano (Mountain View, CA, USA). ACL cantilevers had typical resonance frequencies of 190 kHz and a spring constant of 45 N/m. Bacteria were first visualized through the optical microscope before being selected for imaging. On average, 14 untreated bacteria and 10 individual bacterial cells were imaged for each peptide concentration, with a total area of 4 μm × 4 μm from three independent bacterial preparation slides. Height images were recorded and treated with JPK SPM data processing 5.1.8.

P. aeruginosa [5] = test: SYTOX Green uptake assay (membrane permeabilization, flow cytometry); assay type: cell-based, Pseudomonas aeruginosa; conditions: P. aeruginosa 5 × 10^5 CFU/mL in 10 mM HEPES pH 7.4, 150 mM NaCl, 1 h, 37°C, twofold dilutions starting at MBC
Experimental: SYTOX® Green (Invitrogen, Carlsbad, CA, USA) is a high-affinity nucleic acid stain that only penetrates cells with compromised plasma membranes and emits fluorescence when bound to DNA ([Roth et al., 1997]). A SYTOX Green uptake assay ([Torcato et al., 2013]; [Sani et al., 2015]) was performed using P. aeruginosa to study the effect of viral protein-derived peptides on those bacterial membranes. Bacterial suspensions at 1 × 10^8 CFU/mL in MHB were centrifuged for 10 min at 4000 × g and the pellet resuspended in 10 mM HEPES buffer, pH 7.4, containing 150 mM NaCl, to a final concentration of 5 × 10^5 CFU/mL. The bacterial suspensions were incubated for 1 h at 37°C and 200 rpm, with twofold dilutions of each bactericidal viral protein-derived peptide in a range of concentrations starting at their corresponding MBC. Peptide-treated bacterial cells were incubated with 0.1 μM of SYTOX Green for 10 min, on ice and protected from light. The fluorescence emission intensity signal was measured by flow cytometry (excitation with 488 nm laser and detection at 530 nm with 30 nm bandpass) and a total of 50 000 events were recorded. […] The percentage of permeabilized cells was determined considering that untreated bacterial cells (negative control) are 0% permeabilized and bacterial cells treated with isopropyl alcohol (positive control) are 100% permeabilized. […]

[6] = system: Pseudomonas aeruginosa (P. aeruginosa) ATCC 27853; conditions: previous screen, ref Freire et al., 2015a; cited from earlier work
P. aeruginosa [7] = test: Time-kill assay; assay type: cell-based, Pseudomonas aeruginosa; conditions: peptide at its MBC, after 180 min, MHB, 37°C, relative to control without peptide, three independent experiments
Experimental: as §2

[8] = system: Escherichia coli (E. coli) ATCC 25922; assay type: cell-based; conditions: MHB, 5 × 10^5 CFU/mL, 37°C, 18 h, triplicate
Experimental: (§3) The antibacterial activity of the vCPPs was tested using a standard broth microdilution procedure ([Wikler et al., 2006]; [Wiegand et al., 2008]) to evaluate the bacterial growth inhibition and determine the minimal inhibitory concentration (MIC). The assay was performed using the following strains: Gram-positive Staphylococcus aureus (S. aureus) ATCC 25923 and methicillin-resistant Staphylococcus aureus (MRSA) ATCC 33591, and Gram-negative Escherichia coli (E. coli) ATCC 25922 and Pseudomonas aeruginosa (P. aeruginosa) ATCC 27853, obtained from American Type Culture Collection (ATCC) (Manassas, VA, USA). Bacterial suspensions were prepared by direct suspension of morphologically similar colonies on Mueller Hinton Broth (MHB) from BD (Franklin Lakes, NJ, USA) to a final concentration of 1 × 10^6 CFU/mL, and added to a sterile 96-well microtiter polypropylene plate from Corning (Corning, NY, USA) containing two-fold dilutions of each peptide. Final bacterial concentration was 5 × 10^5 CFU/mL whereas peptide concentrations ranged between 100 and 0.78 μM. The 96-well plate was incubated at 37°C for 18 h. The MIC was defined as the lowest peptide concentration required to inhibited visible bacterial growth. The assay was performed in triplicate.

[9] = system: Pseudomonas aeruginosa (P. aeruginosa) ATCC 27853; assay type: cell-based; conditions: MHB, 5 × 10^5 CFU/mL, 37°C, 18 h, triplicate
Experimental: as §3

[10] = system: Staphylococcus aureus (S. aureus) ATCC 25923; assay type: cell-based; conditions: MHB, 5 × 10^5 CFU/mL, 37°C, 18 h, triplicate
Experimental: as §3

[11] = system: methicillin-resistant Staphylococcus aureus (MRSA) ATCC 33591; assay type: cell-based; conditions: MHB, 5 × 10^5 CFU/mL, 37°C, 18 h, triplicate
Experimental: as §3

MRSA = assay type: cell-based, Staphylococcus aureus; conditions: for bactericidal or bacteriostatic: bactericidal when MBC is equal or lower than four-fold MIC; for MBC: lowest concentration causing ≥99.9% cell death of the inoculum, TSA plates, 37°C, 24 h, triplicate
Experimental: as §1

E. coli = assay type: cell-based, Escherichia coli; conditions: for bactericidal or bacteriostatic: bactericidal when MBC is equal or lower than four-fold MIC; for MBC: lowest concentration causing ≥99.9% cell death of the inoculum, TSA plates, 37°C, 24 h, triplicate
Experimental: as §1

Substance | bactericidal or bacteriostatic (S. aureus [1]) | MBC (S. aureus [1]) | reduction in bacterial viability (S. aureus [2]) | bactericidal or bacteriostatic (P. aeruginosa [3]) | MBC (P. aeruginosa [3]) | MIC [4] | morphological changes of cell envelope (AFM) (P. aeruginosa cells; all concentrations tested (MBC, above and below)) | membrane permeabilization (SYTOX Green) (P. aeruginosa [5]) | MIC [6] | reduction of bacterial viability (P. aeruginosa [7]) | MIC [8] | MIC [9] | MIC [10] | MIC [11] | bactericidal or bacteriostatic (MRSA) | MBC (MRSA) | bactericidal or bacteriostatic (E. coli) | MBC (E. coli) | morphological changes of cell envelope (AFM) (P. aeruginosa cells; 1.56 μM, a concentration below MBC) | morphological changes of cell envelope (AFM) (P. aeruginosa cells; treatment with MBC, or higher)
INWKKWWQVFYTVV-NH2 [vAMP 059] | bactericidal | 1.56 µM | 99.9% | bactericidal | 6.25 µM | 0.78 µM | pronounced collapse in P. aeruginosa cell envelope | increase in membrane permeabilization with increasing peptide concentrations | 6.25 µM | 99.7% | – | – | – | – | – | – | – | – | – | –
KKRYKKKYKAYKPYKKKKKF-NH2 [vCPP 0275] | – | – | – | – | – | – | – | – | – | – | 12.5 µM | 100 µM | 25 to 50 µM | 50 µM | – | – | – | – | – | –
WRRRYRRWRRRRRWRRRPRR-NH2 [vCPP 2319] | bactericidal | 3.13 µM | 90.9% | bactericidal | 3.13 µM | – | – | increase in membrane permeabilization with increasing peptide concentrations | – | 97% | 3.13 µM | 3.13 µM | 1.56 µM | 1.56 µM | bactericidal | 3.13 µM | bactericidal | 3.13 µM | only minor alterations on bacterial topography | marked collapse of the membrane structure
RPRRRATTRRRITTGTRRRR-NH2 [vCPP 0667] | – | – | – | – | – | – | – | – | – | – | 12.5 µM | 25 µM | 50 µM | 100 µM | – | – | – | – | – | –
RRLTLRQLLGLGSRRRRRSR-NH2 [vCPP 0769] | only inhibited bacterial growth | >100 µM | – | bactericidal | 6.25 µM | – | – | – | – | – | 25 µM | 3.13 µM | 3.13 µM | 3.13 µM | only inhibited bacterial growth | >100 µM | bactericidal | 50 µM | – | –
SPRRRTPSPRRRRSQSPRRR-NH2 [vCPP 0417] | – | – | – | – | – | – | – | – | – | – | 25 µM | 100 µM | >100 µM | >100 µM | – | – | – | – | – | –
GRRGPRRANQNGTRRRRRRT-NH2 [vCPP 1779] | – | – | – | – | – | – | – | – | – | – | 25 µM | 25 µM | – | >100 µM | – | – | – | – | – | –
